Laboratory results from ChEMBL document CHEMBL1144111, “Strong antinociceptive effect of incarvillateine, a novel monoterpene alkaloid from Incarvillea sinensis” (1999).
Activity calls are given as the source filed them. No cut-off for these calls is given here.

Key:
[1] = test system: Mus musculus; assay: Antinociceptive activity against formalin-induced pain in ip dosed ddY mouse assessed as reduction of paw licking response during neurogenic phase pretreated for 10 mins before formalin challenge; format: functional
[2] = test system: Mus musculus; assay: Antinociceptive activity against formalin-induced pain in ddY mouse assessed as reduction of paw licking response during neurogenic phase at 20 mg/kg, ip pretreated for 10 mins before formalin challenge in presence of Naloxone; format: functional, organism-based; set-up: dose 20 mg/kg
[3] = test system: Mus musculus; assay: Antinociceptive activity against formalin-induced pain in ip dosed ddY mouse assessed as reduction of paw licking response during inflammatory phase pretreated for 10 mins before formalin challenge; format: functional
[4] = test system: Mus musculus; assay: Antinociceptive activity against formalin-induced pain in ip dosed ddY mouse assessed as reduction of paw licking response during inflammatory phase pretreated for 10 mins before formalin challenge relative to morphine; format: functional
[5] = test system: Mus musculus; assay: Antinociceptive activity against formalin-induced pain in ip dosed ddY mouse assessed as reduction of paw licking response during neurogenic phase pretreated for 10 mins before formalin challenge relative to morphine; format: functional

SMILES | ED50 [1] [µmol/kg] | Activity [2] | ED50 [3] [µmol/kg] | Activity [1] | Activity [4] | Activity [3] | Activity [5]
CN1CC[C@]23c4c5ccc(O)c4O[C@H]2[C@@H](O)C=C[C@H]3[C@H]1C5 [MORPHINE] | 18.4 | inactive | 10.4 | – | – | – | –
COc1cc([C@H]2[C@H](C(=O)O[C@@H]3C[C@@H]4[C@@H](CN(C)C[C@@H]4C)[C@@H]3C)[C@H](c3ccc(O)c(OC)c3)[C@H]2C(=O)O[C@@H]2C[C@@H]3[C@@H](CN(C)C[C@@H]3C)[C@@H]2C)ccc1O [INCARVILLATEINE] | 17.4 | – | 7.8 | Dose-dependent effect | 1.33 | Dose-dependent effect | 1.06
